Data published in publication PMC9523446 (Frontiers in Pharmacology, 2022).
Values joined by “and” are separate entries in the source; they are usually repeats but may differ in a detail not shown here. Identical values can stand only once. “Also recorded” adds a separate entry of the source. Counter-ions that a name gives are not always drawn. Like-named read-outs stand apart in the source and are kept apart here. Starred links: 1 amine or outer side, 2 acyl side, 3 side chain; linkers in the order of their positions; H or OH if unused. Positions of bridges follow the written chain, without caps; N, C: chain ends. Non-standard residues stand in square brackets, D forms with d. Residues, ends and D or L forms follow the SMILES beside them. Chains are numbered I, II in the order given. Actinocin(9to1) = Cc1c2oc3c(C)ccc(C(=O)[*:1])c3nc-2c(C(=O)[*:2])c(N)c1=O; NMeV = CN[C@H](C(=O)O)C(C)C; Sar = CNCC(=O)O

How the values were obtained:
human α9α10 nAChRs [1] = target: T1, human α9α10 nAChRs (Homo sapiens, UniProt Q9GZZ6+Q9UGM1); assay: Desensitization to 15 s pulse of ACh in calcium or barium saline; type: cell-based; details: for peak current amplitude in response to ACh: 15 s pulse of EC50 ACh, oocytes incubated in saline only
T1 construct: expressed in transfected cells; host or cells: Xenopus laevis oocytes co-injected with α9 and α10 cRNAs (1:1)
Text: (§1) Similar to the results presented in Figure 2, peak ACh-evoked currents from α10 nAChRs were reduced in the presence of barium compared to calcium (Figures 10A,B). […] By contrast with α10 nAChRs, α9α10 currents were much smaller in the presence of barium compared to calcium (Figures 10C,D). Furthermore, α9α10 nAChRs desensitized more slowly than α10 nAChRs.

human α10 nAChRs [2] = target: T2, human α10 nAChRs (Homo sapiens, UniProt Q9GZZ6); type: cell-based; parameters: expressed in transfected cells
human α10 nAChRs [3] = target: T2, human α10 nAChRs; assay: Desensitization to 15 s pulse of ACh in calcium or barium saline; type: cell-based; parameters: expressed in transfected cells; details: for peak current amplitude in response to ACh: 15 s pulse of EC50 ACh, oocytes incubated in STR (20 μM)
Text: as §1

human α10 nAChRs [4] = target: T2, human α10 nAChRs; assay: Agonist activation of α10 nAChRs, concentration-response in oocytes; parameters: Emax: dose or concentration left out as unconfirmed
Experimental: For the assessment of ligand activity, the oocyte membranes were clamped at a holding potential of −70 mV and continuously perfused with saline (control solution). […] Ligands were applied in this manner for concentrations up to 1 µM.

human α10 nAChRs [5] = target: T2, human α10 nAChRs; details: ACh 1 mM
Experimental: For the assessment of ligand activity, the oocyte membranes were clamped at a holding potential of −70 mV and continuously perfused with saline (control solution). […] Ligands were applied in this manner for concentrations up to 1 µM. […] For experiments examining the desensitization kinetics of α10-containing nAChRs, sibling oocytes were injected with 25 ng of cRNA for α10 subunits or cRNA for α9 and α10 subunits (25 ng each). Actinomycin-D (1 µM) was also used in some experiments to prevent RNA transcription and inhibit the expression of endogenous chloride channels. The oocytes were incubated in actinomycin-D for 36 h prior to assessment with TEVC electrophysiology.

human α10 nAChRs [6] = target: T2, human α10 nAChRs; assay: cell-based; type: cell-based; parameters: expressed in transfected cells; details: for ACh response in presence of ligand, of control values: oocytes incubated with BRU (20 μM)
human α10 nAChRs [7] = target: T2, human α10 nAChRs; assay: Decay of ACh-evoked currents of ligand-incubated oocytes during saline perfusion (one-phase exponential plateau); details: oocytes treated 3 days with 20 μM ligand; ACh 1 mM; calculated plateau, 95% CI in parentheses
human α9α10 nAChRs [8] = target: T1, human α9α10 nAChRs; assay: cell-based
[9] = tested on: X. laevis oocytes injected with water
human α9 nAChRs = human α9 nAChRs (Homo sapiens, UniProt Q9UGM1)
[10] = oocytes treated 3 days with 20 μM ligand, ACh 1 mM
[11] = read-out: inhibition of ACh-evoked responses

T2 sequence (Q9GZZ6 25-450): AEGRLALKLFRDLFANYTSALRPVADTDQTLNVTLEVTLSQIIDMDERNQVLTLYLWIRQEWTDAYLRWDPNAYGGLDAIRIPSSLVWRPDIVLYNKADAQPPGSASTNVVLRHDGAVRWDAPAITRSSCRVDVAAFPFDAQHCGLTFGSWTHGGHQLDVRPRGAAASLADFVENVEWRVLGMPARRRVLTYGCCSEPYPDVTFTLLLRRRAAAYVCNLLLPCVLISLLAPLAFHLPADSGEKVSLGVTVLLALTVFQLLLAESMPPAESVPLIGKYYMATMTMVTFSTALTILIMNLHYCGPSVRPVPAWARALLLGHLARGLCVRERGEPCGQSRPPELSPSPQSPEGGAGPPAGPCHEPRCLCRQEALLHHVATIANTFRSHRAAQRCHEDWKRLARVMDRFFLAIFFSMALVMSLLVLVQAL
T1 sequence (Q9UGM1 26-479 limits assumed): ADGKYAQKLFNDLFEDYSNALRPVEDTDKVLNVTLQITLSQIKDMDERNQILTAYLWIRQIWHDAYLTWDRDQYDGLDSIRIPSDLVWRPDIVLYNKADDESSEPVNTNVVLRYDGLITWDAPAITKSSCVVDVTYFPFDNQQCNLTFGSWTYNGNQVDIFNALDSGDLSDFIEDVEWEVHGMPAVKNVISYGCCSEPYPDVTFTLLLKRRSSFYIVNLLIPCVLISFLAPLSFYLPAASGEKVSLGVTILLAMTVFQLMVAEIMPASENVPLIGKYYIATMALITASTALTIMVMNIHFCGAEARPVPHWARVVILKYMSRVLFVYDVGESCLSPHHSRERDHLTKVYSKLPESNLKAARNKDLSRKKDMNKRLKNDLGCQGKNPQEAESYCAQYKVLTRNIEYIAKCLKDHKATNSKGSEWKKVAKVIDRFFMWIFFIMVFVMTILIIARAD
T1 sequence (Q9GZZ6 25-450): as the sequence (Q9GZZ6 25-450) above
Chain of human α9 nAChRs (Q9UGM1 26-479 limits assumed): as the sequence (Q9UGM1 26-479 limits assumed) above

CC(=O)OCC[N+](C)(C)C [ACh, acetylcholine]
peak current amplitude in response to ACh (human α9α10 nAChRs [1]; barium): −31 ± 40 nA | peak current amplitude in response to ACh (human α9α10 nAChRs [1]; calcium): −484 ± 270 nA | current at the end of the 15 s pulse of ACh (human α9α10 nAChRs [1]; barium): −23 ± 30 nA | current at the end of the 15 s pulse of ACh, of peak amplitude (human α9α10 nAChRs [1]; barium): 73 ± 8% | current at the end of the 15 s pulse of ACh (human α9α10 nAChRs [1]; calcium): −154 ± 74 nA | current at the end of the 15 s pulse of ACh, of peak amplitude (human α9α10 nAChRs [1]; calcium): 33 ± 4% | ACh-evoked current amplitude (human α10 nAChRs [2]; oocytes treated 3 days with 5 mM ligand, ACh 1 mM, ± SD): −17 ± 11 nA | peak current amplitude in response to ACh (human α10 nAChRs [3]; barium): −1,430 ± 1,424 nA | peak current amplitude in response to ACh (human α10 nAChRs [3]; calcium): −1,818 ± 1,329 nA | current at the end of the 15 s pulse of ACh (human α10 nAChRs [3]; barium): −459 ± 375 nA | current at the end of the 15 s pulse of ACh, of peak amplitude (human α10 nAChRs [3]; barium): 35 ± 11% | current at the end of the 15 s pulse of ACh (human α10 nAChRs [3]; calcium): −553 ± 396 nA | current at the end of the 15 s pulse of ACh, of peak amplitude (human α10 nAChRs [3]; calcium): 31 ± 6% | Hill Slope of activation curve (human α10 nAChRs [4]; oocytes incubated in STR (20 μM), 95% CI in parentheses): 1.1 (0.9–1.3)

Cc1c2oc3c(C)ccc(C(=O)N[C@@H]4C(=O)N[C@H](C(C)C)C(=O)N5CCC[C@H]5C(=O)N(C)CC(=O)N(C)[C@@H](C(C)C)C(=O)O[C@@H]4C)c3nc-2c(C(=O)N[C@@H]2C(=O)N[C@H](C(C)C)C(=O)N3CCC[C@H]3C(=O)N(C)CC(=O)N(C)[C@@H](C(C)C)C(=O)O[C@@H]2C)c(N)c1=O [Actino-D, actinomycin-D] (I: T[dV]P[Sar][NMeV] / II: T[dV]P[Sar][NMeV]; ester I:1-I:C, II:1-II:C; linker I:N-II:N via Actinocin(9to1))
ACh-evoked response amplitude (human α10 nAChRs [5]; sibling oocytes incubated with 1 µM actinomycin-D (and STR 20 μM), barium): −164 ± 96 nA | ACh-evoked response amplitude (human α10 nAChRs [5]; sibling oocytes incubated with 1 µM actinomycin-D (and STR 20 μM), calcium ([…])): −186 ± 96 nA

COc1cc2c(cc1OC)[C@@]13CCN4CC5=CCO[C@H]6CC(=O)N2[C@H]1[C@H]6[C@H]5C[C@H]43 [BRU, dimethoxystrychnine sulfate hydrate]
range of ACh-evoked current amplitudes (human α10 nAChRs [2]; [10]): −50 to −888 nA | ACh-evoked current amplitude (human α10 nAChRs [2]; oocytes treated 3 days with 20 μM ligand, ACh 1 mM, ± SD): −302 ± 225 nA | ACh response in presence of ligand, of control values (human α10 nAChRs [6]; ligand 100 nM perfused): 87 ± 16% | ACh response in presence of ligand, of control values (human α10 nAChRs [6]; ligand 1 μM (2nd of series 100 nM through 300 μM)): 246 ± 74% | ACh response in presence of ligand, of control values (human α10 nAChRs [6]; ligand 10 μM (3rd of series 100 nM through 300 μM)): 371 ± 101% | ACh response in presence of ligand, of control values (human α10 nAChRs [6]; ligand 100 μM (4th of series 100 nM through 300 μM)): 260 ± 102% | ACh response in presence of ligand, of control values (human α10 nAChRs [6]; ligand 300 μM perfused): 168 ± 73% | plateau to which ACh-evoked currents decay, of initial current amplitudes (human α10 nAChRs [7]): 15% and 15 (13–17) %

O=C1C[C@@H]2OCC=C3CN4CC[C@]56c7ccccc7N1[C@H]5[C@H]2[C@H]3C[C@H]46 [STR, strychnine]
ACh-evoked currents after acute application, of control values (human α9α10 nAChRs [8]): 1.0 ± 0.5% | inhibition at 20 µM (human α9α10 nAChRs [8]; [11]): ~99% | ACh-evoked current amplitude [9]: −1.6 ± 0.7 nA | ACh-evoked current amplitude after exposure to STR (human α9 nAChRs; subset of choline-incubated oocytes then incubated in STR (20 μM) for 24 h, ACh 100 μM): −2.1 ± 1.2 nA | ACh-evoked response amplitude (human α10 nAChRs [5]; oocytes treated 36 h with STR (20 μM), calcium replaced with equimolar barium): −301 ± 225 nA | ACh-evoked response amplitude (human α10 nAChRs [5]; oocytes treated 36 h with STR (20 μM), saline with calcium ([…])): −373 ± 273 nA | range of ACh-evoked current amplitudes (human α10 nAChRs [2]; [10]): −76 to −2,378 nA | ACh-evoked currents after acute application, of control values (human α10 nAChRs [6]): 52 ± 13% | IC50 (human α10 nAChRs [6]): 20.2 µM | enhancement of ACh-evoked current amplitudes (human α10 nAChRs [6]): 518 ± 411% | response to ACh after perfusion with ligand (human α10 nAChRs [6]): −294 ± 149 nA | inhibition at 20 µM (human α10 nAChRs [6]; [11]): ~50% | plateau to which ACh-evoked currents decay, of initial current amplitudes (human α10 nAChRs [7]): 74% and 74 (72–76) %

C[N+](C)(C)CCO [choline]
ACh-evoked current amplitude before exposure to STR (human α9 nAChRs): −78 ± 44 nA | Emax (human α10 nAChRs [4]; read-out: maximal response, of the calculated maximal response to ACh): 4 ± 2%

CN1CCC[C@H]1c1cccnc1 [nicotine, (-)-nicotine hydrogen tartrate]
ACh-evoked current amplitude (human α10 nAChRs [2]): −6.0 ± 6.2 nA | ACh responses in the presence of ligand (human α10 nAChRs [6]): 99 ± 8% | agonist-evoked currents (human α10 nAChRs [4]; concentrations up to 1 mM, oocytes incubated in STR (20 μM)): failed to evoke current responses; also recorded: failed to induce detectable currents
